For one assay, the target named is T1, TNF (Mus musculus, UniProt P06804).
T1 sequence (P06804 1-235): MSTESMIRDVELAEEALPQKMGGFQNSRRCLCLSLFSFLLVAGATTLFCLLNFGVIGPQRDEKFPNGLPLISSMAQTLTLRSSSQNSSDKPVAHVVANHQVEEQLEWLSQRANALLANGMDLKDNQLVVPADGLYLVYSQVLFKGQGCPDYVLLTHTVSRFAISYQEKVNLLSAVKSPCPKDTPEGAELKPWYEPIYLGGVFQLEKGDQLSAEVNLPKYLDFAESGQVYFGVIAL
The following applies: HF and SAH models, cited from earlier work.

The test system of assay [1] is cremaster skeletal muscle resistance arteries. Put plainly: Cremaster skeletal muscle resistance artery myogenic tone and phenylephrine response with CFTR inhibition in vitro. The following applies: wild-type mouse arteries; in vitro 100 nmol/L for 30 minutes. The method, then: Isolation and functional assessment of resistance arteries: Mouse olfactory (a first branch of the anterior cerebral artery) and PCAs were carefully dissected, cannulated onto micropipettes, stretched to their in vivo lengths and pressurized to 45 mmHg, as previously described (3,6); mouse skeletal muscle resistance arteries were dissected from the cremaster muscle, cannulated and pressurized to 60 mmHg. All functional experiments were conducted in 3-morpholinopropanesulfonic acid (MOPS) buffered saline at 37° C. with no perfusion. […]
Myogenic responses were elicited by step-wise 20 mmHg increases in transmural pressure from 20 mmHg to 80 mmHg (olfactory arteries) or 100 mmHg (posterior cerebral arteries and cremaster skeletal muscle resistance arteries). At each pressure step, vessel diameter (diaactive) was measured once a steady state was reached (5 min). Vessels requiring treatment (e.g., CFTR(inh)-172) were incubated with the reagent in MOPS for 30 min and myogenic responses were then assessed in the presence of that reagent. Following completion of all diaactive measurements, MOPS buffer was replaced with a Ca^2+-free version and maximal passive diameter (diamax) was recorded at each pressure step. […]

Assay [2] relates to olfactory cerebral artery. The following applies: recent observations (6); cited from earlier work.
Assay [3] deals with posterior cerebral arteries. Put plainly: Phenylephrine responses of isolated posterior cerebral arteries. It is filed as in vivo, mouse. The following applies: Mus musculus, posterior cerebral arteries, log scale, read-out: log EC50 of phenylephrine response (converted). Here is the method: (§1) Isolation and functional assessment of resistance arteries: Mouse olfactory (a first branch of the anterior cerebral artery) and PCAs were carefully dissected, cannulated onto micropipettes, stretched to their in vivo lengths and pressurized to 45 mmHg, as previously described (3,6); mouse skeletal muscle resistance arteries were dissected from the cremaster muscle, cannulated and pressurized to 60 mmHg. All functional experiments were conducted in 3-morpholinopropanesulfonic acid (MOPS) buffered saline at 37° C. with no perfusion. Vasomotor responses to phenylephrine (5 μmol/L for posterior cerebral arteries, 10 μmol/L for cremaster skeletal muscle arteries) provided an assessment of vessel viability at the beginning and end of each experiment. Arteries failing to show ≥25% constriction to phenylephrine were excluded.
(§2) Myogenic tone was calculated as the percent constriction in relation to the maximal diameter at each respective transmural pressure: tone (% of diamax)=[(diamax−diaactive)/diamax]×100, where diaactive is the vessel diameter in MOPS containing Ca^2+ and diamax is the diameter in Ca^2+-free MOPS. Analyses of vasomotor responses to phenylephrine used the same calculation, only in this case, diaactive represents the vessel diameter at steady state following application of the given agent and diamax represents the maximal diameter measured under Ca^2+-free conditions.

For assay [4], the system named is olfactory cerebral arteries. The assay is described as follows: Phenylephrine responses of isolated olfactory cerebral arteries. The format is in vivo, mouse. Conditions: Mus musculus, olfactory cerebral arteries, log scale, read-out: log EC50 of phenylephrine response (converted). Here is the method: as §1, §2

Here are results for three molecules from patent US20210346359A1, “Use of CFTR Modulators For Treating Cerebrovascular Conditions” (Qanatpharma AG, priority 2018, published 2021).

“Also recorded” adds a separate entry of the source. Read-outs that look alike come from different tables or passages of the source.

By EC50 is commonly meant the concentration needed to bring the measured effect to its halfway point.

Regarding etanercept, on TNF (earlier work (3,4,6)), the “HF- and SAH-mediated enhancement of cerebrovascular vasoconstriction (augmented myogenic tone)” value is “eliminates”; the cerebral perfusion entry is “normalizes”. Also, the neuronal injury entry on TNF (earlier work (5,6)) is “reduces”.
`O=C(O)c1ccc(/C=C2\SC(=S)N(c3cccc(C(F)(F)F)c3)C2=O)cc1` [CFTR(inh)-172]: in assay [1], the “cremaster skeletal muscle resistance artery myogenic tone” value is given as “does not affect; also recorded: not altered” and the “phenylephrine dose-response relationship in cremaster arteries” value was “not altered”. In assay [2], the “olfactory cerebral artery myogenic tone” value is listed as “augments”.
As to `CNC[C@H](O)c1cccc(O)c1` [phenylephrine], the EC50 in assay [3] (CFTRΔF508 mice) was 1000 nM; in assay [3] (HF mice untreated) it was 562 nM; in assay [3] (Sham (HF study)), 501 nM; in assay [3] (WT littermates), 1480 nM; in assay [4] (SAH untreated (C18 study)), 977 nM; in assay [4] (SAH untreated (lumacaftor study)) it was 1170 nM. Besides, the EC50 was 3020 nM in assay [4] (Sham (C18 SAH study)) and 1620 nM in assay [4] (Sham (lumacaftor SAH study)).
